Data from ChEMBL document CHEMBL3507680, “University of Dundee, Gates Library screen for HepG2 cell viability”.

Assay: Human HepG2 cell viability assay in 384 well format
Format: toxicity, cell-based
Parameters: dose 125 nL, time 70.5 hour; concentration not given beside the values
Conditions: HepG2 cells, read-out: Inhibition

Row | Structure (SMILES) | cytotoxicity at 70.5 h
1 | CN1CCN(C(=O)c2cc(-c3ccco3)cs2)CC1 | -20.5%
2 | CC1CCCN(C(=O)c2cc(-c3ccco3)cs2)C1 (stereo unspecified) | -14.8%
3 | CC1CCCN(C(=O)c2ccc(-c3ccco3)o2)C1 (stereo unspecified) | -22.7%
4 | CCn1cc(N2Cc3nc(N4CCC(O)CC4)ncc3C2=O)cn1 | 2.23%
5 | Cc1nc(Nc2cnccn2)cc(C2CCN(c3ncccn3)C2)n1 (stereo unspecified) | -12.7%
6 | CN[C@H]1CC[C@]2(CC1)CNC(=O)c1cc(C)ccc1O2 | -8.44%
7 | CC(=O)N(C)[C@H]1CC[C@]2(CC1)CNC(=O)c1cc(C)ccc1O2 | -11.3%
8 | COCC(=O)N1CCCCC1c1ccncn1 (stereo unspecified) | 10.7%
9 | O=C(O)COc1ccccc1CN1CCCC1c1cnccn1 (stereo unspecified) | -9.06%
10 | COCC(=O)N1CCC(C(=O)c2cc(C)cnc2N)CC1 | -1.24%
11 | COCCC(=O)N1CCC(C(=O)c2cc(C)cnc2N)CC1 | -8.64%
12 | COCC(=O)N1CCCCC1c1ccnc(Nc2cnccn2)n1 (stereo unspecified) | -7.98%
13 | Cc1nc(C2CCCN2C(=O)COc2ccccc2)ncc1C(N)=O (stereo unspecified) | -4.1%
14 | Cc1nc(C2CCCN2C(=O)Cc2ccc(F)cc2)ncc1C(N)=O (stereo unspecified) | -8.28%
15 | Cc1noc(C)c1-c1cncc(C2CCCN2Cc2ncccc2F)n1 (stereo unspecified) | -6.52%
16 | CNc1cc(C2CCCN(Cc3ccccc3OCC(=O)O)C2)ccn1 (stereo unspecified) | -8.72%
17 | O=C(N1CCCCC1)N1CCCC(c2ncncc2-c2ccncc2)C1 (stereo unspecified) | -8.3%
18 | CC(=O)N1CCCC(c2ncncc2-c2ccncc2)C1 (stereo unspecified) | -7.71%
19 | COc1ccc(C2Nc3cc(Cl)ccc3C3=NCCN32)cc1O (stereo unspecified) | -1.91%
20 | Cc1nn(C)c(C)c1-c1cnc(C2CCCN(S(C)(=O)=O)C2)cn1 (stereo unspecified) | -9.63%
21 | Cc1cc(CCC(N)=O)cc(C2CCCN2Cc2cnc(C)nc2)n1 (stereo unspecified) | -7.32%

Row | Structure (SMILES) | cytotoxicity at 70.5 h
22 | Cc1cc(N2CCCC2c2cncc(N(C)C)n2)ncn1 (stereo unspecified) | 1.3%
23 | Cc1ccnc(C2CCCN2C(=O)CN(C)C)n1 (stereo unspecified) | -1.48%
24 | Cc1cccc(C(=O)N2CC(Cc3nccc4ccn(C)c34)C2)n1 | 1.37%
25 | Cc1nc(C2CCCN2C(=O)c2ccc(F)cc2)ncc1C(N)=O (stereo unspecified) | -3.31%
26 | CC(=O)N1CCN(c2cc(C3CN(C(C)=O)CCO3)nc(C)n2)CC1 (stereo unspecified) | -4.45%
27 | COc1ccccc1CN1CCC(c2nn(CCN)c3nccnc23)C1 (stereo unspecified) | -0.747%
28 | Cc1ccccc1CN1CCC(c2nn(CCN)c3nccnc23)C1 (stereo unspecified) | -0.306%
29 | CCC(CC)C(=O)N1CCC(c2nn(CCN)c3nccnc23)C1 (stereo unspecified) | -4.84%
30 | O=C(CC1CCCCC1)N1CCC(c2ncc3c(n2)CCNC3)CC1 | -7.09%
31 | CCC(=O)N1CCC(c2ncc3c(n2)CCNC3)CC1 | -4.58%
32 | CN1CCCCC1c1ncc2c(n1)CCN(CCCc1ccccc1)C2 (stereo unspecified) | 16.2%
33 | O=C(C1CCCC1)N1CCC(c2ncc3c(n2)CCNC3)C1 (stereo unspecified) | -5.84%
34 | NC(=O)CN1CCCC(c2nccnc2Oc2cccc(F)c2)C1 (stereo unspecified) | -9.46%
35 | Cc1cccc(CN2CCC(C3Nc4ccccc4S(=O)(=O)N3)CC2)n1 (stereo unspecified) | -2.6%
36 | Cc1ccc2c(c1)C(=O)NCC1(CCN(C(=O)c3sccc3C)CC1)O2 | -5.39%
37 | Cc1ccc2c(c1)C(=O)NCC1(CCN(C(=O)c3cnccn3)CC1)O2 | -11%
38 | Cc1cc2c(=O)n3c(nc2s1)CCN(C(=O)c1ccnn1C)CC3 | -8.17%
39 | CCCC(=O)N1CCC(c2cc3n(n2)[C@@H](C(F)(F)F)C[C@@H](C)N3)CC1 | -3.97%
40 | Cc1ccc(S(=O)(=O)N2C[C@H]3C[C@H](NC(=O)c4cscn4)[C@H]3C2)cc1 | 9.07%
41 | Cc1ccc(-c2cc(N)c(=O)n(C(C)C(=O)NCC3CCCCC3)n2)s1 (stereo unspecified) | 18%
42 | Cc1ccc(-c2cc(N)c(=O)n(CC(=O)NC3CCCC3)n2)s1 | 13%

Row | Structure (SMILES) | cytotoxicity at 70.5 h
43 | Cc1ccc2c(c1)C(=O)NCC1(CCN(C(=O)c3csc(C)c3)CC1)O2 | -9.12%
44 | Cc1ccc2c(c1)C(=O)NCC1(CCN(C(=O)c3scnc3C)CC1)O2 | -6.59%
45 | Clc1ccccc1CN1CCCC(c2nnc(-c3cnccn3)o2)C1 (stereo unspecified) | -5.49%
46 | Cn1nccc1C(=O)N1C[C@@H]2CC[C@H](Oc3cccc(F)c3)[C@@H]2C1 | -3.82%
47 | NCc1cnn(-c2ccccc2C(=O)NCc2ccccn2)c1 | -5.83%
48 | Cc1noc(CNC(=O)c2ccccc2-n2cc(CN)cn2)n1 | -5.09%
49 | CN(CC1(O)CCCN(c2ccccn2)C1)C(=O)CC1CCOCC1 (stereo unspecified) | -9.69%
50 | Cn1cc(CN2CC[C@H](O)[C@@H](n3ccc(=O)[nH]c3=O)CC2)cn1 | 12.4%
51 | Cc1noc(C)c1-c1cncc(C2CCCN2Cc2cc[nH]n2)n1 (stereo unspecified) | -3.25%
52 | CN(C)CC(=O)N1CCCCC1c1nc(N)ncc1-c1ccccc1 (stereo unspecified) | 5.62%
53 | CC(=O)N1CCCC(Cc2cnc(C(=O)N3CCC(C)CC3)cn2)C1 (stereo unspecified) | -5.67%
54 | CCn1ccc(C(=O)N2CCCC2(C)c2nc(C)cc(N(C)C)n2)n1 (stereo unspecified) | -7.92%
55 | CN1CCCC(Cc2cncc(C(=O)N3CCOCC3)c2)C1 (stereo unspecified) | 12.9%
56 | Cc1ccc(S(=O)(=O)N2CCC(c3n[nH]cc3C)C2)cc1 (stereo unspecified) | -1.04%
57 | COc1ccc(CN2CCC(c3nccnc3-n3ccnc3)CC2)cc1 | -5.25%
58 | OCCN1CCCC(c2nccnc2Oc2ccccc2)C1 (stereo unspecified) | -6.87%
59 | CN(C)C(=O)CN1CCCC1c1nc(N)ncc1-c1ccc(F)cc1 (stereo unspecified) | 2.44%
60 | CC(C)CC(NC(=O)CSCC(N)=O)c1cccs1 (stereo unspecified) | -5.44%
61 | COc1ccccc1CC1CCCN1C(=O)c1cn[nH]c1C (stereo unspecified) | -4.05%
62 | CN(C(=O)OC(C)(C)C)C1CCN(C(=O)c2cc(Cl)c[nH]2)C1 (stereo unspecified) | 13%
63 | O=C(c1cnc(-c2ccccc2)nc1)N1CCOC2(CCCC2)C1 | -8.9%

Row | Structure (SMILES) | cytotoxicity at 70.5 h
64 | CNC(=O)CN(C)S(=O)(=O)c1c(Br)cc2[nH]c(=O)oc2c1Cl | -3.9%
65 | Cc1nn(C)c2ncc(NC(=O)N(C)Cc3cc(Cl)cn3C)cc12 | -4.9%
66 | NC(=O)N1CCCN(CCCSCc2ccccc2)CC1 | -17.6%
67 | FC(F)Oc1ccc(CNCc2cc(Br)c3c(c2)OCO3)cc1 | -6.89%
68 | CCN(CC1CCOC1)S(=O)(=O)Cc1cc(Cl)ccc1OC (stereo unspecified) | -14.8%
69 | CC(=O)N1CCCN(CCCc2ccccc2)CC1 | -6.32%
70 | CC(C)c1nnc2n1CCN(Cc1ccc3c(c1)OCCO3)C2 | 0.93%
71 | CCC(C)NC(=O)c1sccc1-n1cnnn1 (stereo unspecified) | 27.2%
72 | CC(C)OCCCNC(=O)CN1CCN(c2nccs2)CC1 | -4.41%
73 | Cc1cnn(C2CN(c3ccccc3S(=O)(=O)C(F)(F)F)C2)c1 | 1.3%
74 | Cn1nc(C(=O)NCc2ccc(OC3CCCCC3)nc2)ccc1=O | 21.9%
75 | O=c1c2sccc2nc2n1CCN(Cc1ccsc1)CC2 | 17.3%
76 | CCOc1ccc(CN2CCc3nc4ccsc4c(=O)n3CC2)cc1 | -6.57%
77 | Clc1ccccc1CN1CCc2nc(C3CCNCC3)ncc2C1 | -6.61%
78 | c1cncc(-c2nccc(CN3CCC(N4CCCCC4)CC3)n2)c1 | 18.5%
79 | CCn1cc(CN2C[C@@H]3CCCN3C[C@@H]2CCSC)cn1 | -2.81%
80 | Cc1cc(C[C@@H]2COC[C@H]2NCc2ccc(C(F)(F)F)cc2)on1 | -5.79%
81 | Cc1ccc(CN[C@@H]2COC[C@H]2Cc2cc(C)no2)cc1 | -7.63%
